Laboratory results reported in patent US8030354B2, “Substituted biphenyl GPR40 modulators” (Amgen Inc., priority 2007, dated 2011).

Experiments:
GPR40 [1] = target: T1, GPR40 (Homo sapiens, UniProt O14842); assay: Inositol phosphate accumulation assay (A9_GPR40 cells); type: cell-based; design: expressed in transfected cells; host or cells: CHO cells stably transfected with GPR40 and aequorin; conditions: inositol phosphate assay, A9_GPR40 cells, 1 hour; read-out: IP3 EC50
Procedure, shortened: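 [^3H] inositol phosphate accumulation was measured by SPA after 1 h compound exposure at 37° C in HBSS/10 mM LiCl containing HSA, ending with a 20 mM formic acid quench. The GPR40-transfected A9 cells had first been labelled overnight (16 h) with 1 μCi/mL ^3H-inositol.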

GPR40 [2] = target: T1, GPR40; assay: Cell-based aequorin assay (CHO cells stably expressing GPR40 and aequorin); design: expressed in transfected cells; host or cells: CHO cells stably transfected with GPR40 and aequorin; conditions: activation of human GPR40, CHO cells, 0.01% HSA
Procedure, shortened: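 CHO cells stably co-expressing GPR40 and aequorin, loaded with coelenterazine (1 ug/mL, 2 h, room temperature) in H/HBSS with 20 mM Hepes and 0.01% fatty acid-free HSA. Serially diluted compounds added; luminescence recorded over 20 s. EC50 from dose-response of maximum relative light units.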

T1 sequence (O14842 whole entry): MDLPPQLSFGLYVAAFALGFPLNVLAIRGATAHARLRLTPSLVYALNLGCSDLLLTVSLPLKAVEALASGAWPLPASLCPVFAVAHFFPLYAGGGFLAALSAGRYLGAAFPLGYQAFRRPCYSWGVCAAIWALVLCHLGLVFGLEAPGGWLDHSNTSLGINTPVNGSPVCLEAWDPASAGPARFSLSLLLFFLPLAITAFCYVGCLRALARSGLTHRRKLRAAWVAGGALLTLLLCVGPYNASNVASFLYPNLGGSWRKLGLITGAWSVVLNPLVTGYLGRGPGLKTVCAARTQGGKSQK

| EC50 (GPR40 [1]) [nM] | EC50 (GPR40 [2]) [nM] | Structure (SMILES) |
| --- | --- | --- |
| 1000 to 10000 | 1000 to 10000 | CCOc1ccc(F)c(-c2ccc(COc3cccc([C@@H](CC(=O)O)C4CC4)c3)cc2[C@@H]2CCCC2(C)C)c1 (single isomer, unassigned) [Example 66.25] |
| 10 to 100 | 100 to 1000 | CCOc1ccc(F)c(-c2ccc(COc3cccc(C(CC(=O)O)C4CC4)c3)cc2C2CCCC2(C)C)c1 (single isomer, unassigned) [Example 66.26] |
| < 10 | 100 to 1000 | COc1ccc(F)c(-c2ccc(COc3cccc([C@@H](CC(=O)O)C4CC4)c3)cc2[C@@H](OCc2ccccc2)C(C)(C)C)c1 (single isomer, unassigned) [Example 66.28] |
| 10 to 100 | 100 to 1000 | COC(c1cc(COc2cccc(C(CC(=O)O)C3CC3)c2)ccc1-c1ccccc1F)C(C)(C)C (single isomer, unassigned) [Example 66.33] |
| 10 to 100 | 10 to 100 | COc1cc(-c2ccc(COc3cccc(C(CC(=O)O)C4CC4)c3)cc2C2=CCCCC2(C)C)c(F)cn1 (single isomer, unassigned) [Example 66.34, (3S)-3-Cyclopropyl-3-(3-(((3-(6,6-dimethyl-1-cyclohexen-1-yl)-4-(5-fluoro-2-(methyloxy)-4-pyridinyl)phenyl)methyl)oxy)phenyl)propanoic acid or (3S)-3-Cyclopropyl-3-(3-(((3-(6,6-dimethyl-1-cyclohexen-1-yl)-4-(5-fluoro-2-(methyloxy)-4-pyridinyl)phenyl)methyl)oxy)phenyl)propanoic acid] |
| < 10 | 10 to 100 | COc1cc(-c2ccc(COc3cccc(C(CC(=O)O)C4CC4)c3)cc2C2CCCC2(C)C)c(F)cn1 (single isomer, unassigned) [Example 66.36] |
| 10 to 100 | 100 to 1000 | COc1ccc(F)c(-c2ccc(COc3cccc([C@@H](CC(=O)O)C4CC4)c3)cc2C2N(C)CCCC2(C)C)c1 (single isomer, unassigned) [Example 66.40, (S)-3-Cyclopropyl-3-{3-[2′-fluoro-5′-methoxy-2-(1,3,3-trimethyl-piperidin-2-yl)-biphenyl-4-ylmethoxy]-phenyl}-propionic acid or (R)-3-cyclopropyl-3-{3-[2′-fluoro-5′-methoxy-2-(1,3,3-trimethyl-piperidin-2-yl)-biphenyl-4-ylmethoxy]-phenyl}-propionic acid] |
| 10 to 100 | 100 to 1000 | COCC(C)(C)C(OC)c1cc(COc2cccc(C(CC(=O)O)C3CC3)c2)ccc1-c1cc(OC)ccc1F (single isomer, unassigned) [Example 66.42, (S)-3-Cyclopropyl-3-{3-[2-(1,3-dimethoxy-2,2-dimethyl-propyl)-2′-fluoro-5′-methoxy-biphenyl-4-ylmethoxy]-phenyl}-propionic acid or (S)-3-Cyclopropyl-3-{3-[2-(1,3-dimethoxy-2,2-dimethyl-propyl)-2′-fluoro-5′-methoxy-biphenyl-4-ylmethoxy]-phenyl}-propionic acid] |
| < 10 | 100 to 1000 | COc1ccc(F)c(-c2cc(F)c(COc3cccc([C@@H](CC(=O)O)C4CC4)c3)cc2C2=CCCC2(C)C)c1 (single isomer, unassigned) [Example 66.43, (3S)-3-Cyclopropyl-3-(3-(((2-(5,5-dimethyl-1-cyclopenten-1-yl)-2′,5-difluoro-5′-(methyloxy)-1,1′-biphenyl-4-yl)methyl)oxy)phenyl)propanoic acid or (3R)-3-cyclopropyl-3-(3-(((2-(5,5-dimethyl-1-cyclopenten-1-yl)-2′,5-difluoro-5′-(methyloxy)-1,1′-biphenyl-4-yl)methyl)oxy)phenyl)propanoic acid] |
| < 10 | 10 to 100 | COc1ccc(F)c(-c2cc(F)c(COc3cccc([C@@H](CC(=O)O)C4CC4)c3)cc2[C@H]2CCCC2(C)C)c1 (single isomer, unassigned) [Example 66.44] |
| 10 to 100 | 100 to 1000 | COc1ccc(F)c(-c2c(F)cc(COc3cccc([C@@H](CC(=O)O)C4CC4)c3)cc2C2=CCCC2(C)C)c1 (single isomer, unassigned) [Example 66.49, (3S)-3-Cyclopropyl-3-(3-(((2-(5,5-dimethyl-1-cyclopenten-1-yl)-2′,6-difluoro-5′-(methyloxy)-1,1′-biphenyl-4-yl)methyl)oxy)phenyl)propanoic acid or (3R)-3-cyclopropyl-3-(3-(((2-(5,5-dimethyl-1-cyclopenten-1-yl)-2′,6-difluoro-5′-(methyloxy)-1,1′-biphenyl-4-yl)methyl)oxy)phenyl)propanoic acid] |
| 100 to 1000 | 100 to 1000 | CC1(C)CCC=C1c1cc(COc2cccc([C@@H](CC(=O)O)C3CC3)c2)ccc1-c1cc(C(F)F)ccc1F (single isomer, unassigned) [Example 66.50, (3S)-3-Cyclopropyl-3-(3-(((5′-(difluoromethyl)-2-(5,5-dimethyl-1-cyclopenten-1-yl)-2′-fluoro-1,1′-biphenyl-4-yl)methyl)oxy)phenyl)propanoic acid or (3R)-3-cyclopropyl-3-(3-(((5′-(difluoromethyl)-2-(5,5-dimethyl-1-cyclopenten-1-yl)-2′-fluoro-1,1′-biphenyl-4-yl)methyl)oxy)phenyl)propanoic acid] |
| 10 to 100 | 100 to 1000 | CC1(C)CCC[C@@H]1c1cc(COc2cccc([C@@H](CC(=O)O)C3CC3)c2)ccc1-c1cc(C(F)F)ccc1F (single isomer, unassigned) [Example 66.51] |
| 10 to 100 | 100 to 1000 | COc1ccc(F)c(-c2ccc(COc3cccc([C@@H](CC(=O)O)C4CC4)c3)cc2[C@H]2CCC[C@@H]2C)c1 (single isomer, unassigned) [Example 66.56] |
| < 10 | 10 to 100 | CCC(C)(C)[C@H](OC)c1cc(COc2cccc([C@@H](CC(=O)O)C3CC3)c2)ccc1-c1cc(OC)ccc1F (single isomer, unassigned) [Example 66.62] |
| 1000 to 10000 | 1000 to 10000 | COc1ccc(F)c(-c2ccc(COc3cccc([C@@H](CC(=O)O)C4CC4)c3)cc2COC(C)(C)C)c1 (single isomer, unassigned) [Example 66.63, (3S)-3-Cyclopropyl-3-(3-(((2-(((1,1-dimethylethyl)oxy)methyl)-2′-fluoro-5′-(methyloxy)-1,1′-biphenyl-4-yl)methyl)oxy)phenyl)propanoic acid or (3R)-3-cyclopropyl-3-(3-(((2-(((1,1-dimethylethyl)oxy)methyl)-2′-fluoro-5′-(methyloxy)-1,1′-biphenyl-4-yl)methyl)oxy)phenyl)propanoic acid] |

| Structure (SMILES) | EC50 (GPR40 [1]) [nM] | EC50 (GPR40 [2]) [nM] |
| --- | --- | --- |
| COc1ccc(F)c(-c2ccc(COc3cccc([C@@H](CC(=O)O)C4CC4)c3)cc2[C@H](OC)C(C)(C)C)c1 (single isomer, unassigned) [Example 66.24] | 100 to 1000 | 1000 to 10000 |
| COc1ccc(F)c(-c2ccc(COc3cccc([C@@H](CC(=O)O)C4CC4)c3)cc2[C@H](F)C(C)(C)C)c1 (single isomer, unassigned) [Example 66.31] | 10 to 100 | 100 to 1000 |
| COc1cc(-c2ccc(COc3cccc([C@@H](CC(=O)O)C4CC4)c3)cc2[C@@H]2CCCC2(C)C)c(F)cn1 (single isomer, unassigned) [Example 66.37] | 10 to 100 | 100 to 1000 |
| COc1ccc(F)c(-c2ccc(COc3cccc([C@@H](CC(=O)O)C4CC4)c3)cc2[C@H]2OCCCC2(C)C)c1 (single isomer, unassigned) [Example 66.54] | 10 to 100 | 100 to 1000 |
